The record followed here is PubChem BioAssay (NCI).

Test systems include UO-31 renal; OVCAR-8 ovarian; SNB-19 CNS; MDA-MB-435; HOP-92 NSCLC; K-562 leukemia; HT29 colon; MDA-MB-231 breast; EKVX NSCLC; SR leukemia.
Assay in all cases: growth of human tumour cells (NCI), 48 h

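Cells were grown in 96-well plates and exposed to each compound for 48 hours at five concentrations; endpoints were interpolated linearly between bracketing concentrations, or set to the highest concentration if not reached. Here, GI50 denotes the concentration required for 50% inhibition of growth. Definition used: TGI = concentration required for complete inhibition of growth.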 Some results are limits rather than exact numbers.

With `O=c1[nH]nc(Cc2ccccc2)n1/N=C/c1c[nH]c2ccccc12`, the TGI in the test on UO-31 renal, in the test on OVCAR-8 ovarian, in the test on SNB-19 CNS, in the test with MDA-MB-435, with HOP-92 NSCLC and in the test with K-562 leukemia was over 100 µM each time. Moreover, the TGI in the test with HT29 colon, in the test on MDA-MB-231 breast, in the test on EKVX NSCLC and in the test with SR leukemia was over 100 µM throughout.

On to `Cc1ccc(C(=O)N(C2CCCCC2)C2CCCCC2)cc1N=NN(C)C`, for which the TGI in the test on UO-31 renal worked out at 26 µM; in the test with OVCAR-8 ovarian, 27.5 µM; in the test with SNB-19 CNS, 26.4 µM; in the test on MDA-MB-435, 30 µM; in the test on HOP-92 NSCLC it was 23.4 µM; in the test on K-562 leukemia it was 47.6 µM. Moreover, the TGI in the test with HT29 colon turned out to be 16.6 µM; in the test on MDA-MB-231 breast it was 25.7 µM; with EKVX NSCLC, 32.3 µM; in the test with SR leukemia it was 76.7 µM.

`CC(=O)OC[C@H]1O[C@@H](O[C@H]2[C@H](OC(C)=O)C=CO[C@@H]2COC(C)=O)C(OC(C)=O)[C@H]2OC(C)(C)O[C@H]21` (stereo partly drawn): the TGI in the test on UO-31 renal, with OVCAR-8 ovarian, in the test on SNB-19 CNS, in the test on MDA-MB-435, in the test on HOP-92 NSCLC and in the test with K-562 leukemia was over 100 µM each time. For the same compound, the TGI in the test with HT29 colon, with MDA-MB-231 breast, in the test on EKVX NSCLC and in the test with SR leukemia was over 100 µM each time.

With `C=CC[C@H]1[C@@H](O[Si](C)(C)C(C)(C)C)[C@H](n2ccc(=O)[nH]c2=O)O[C@@H]1CO[Si](C)(C)C(C)(C)C`, the TGI with UO-31 renal turned out to be 3.65 µM; with OVCAR-8 ovarian it was 3.93 µM; with SNB-19 CNS it was 6.76 µM; in the test on MDA-MB-435 it was 4.36 µM; in the test with HOP-92 NSCLC it was 2.72 µM; with K-562 leukemia, 6.1 µM. Moreover, the TGI with HT29 colon was 2.96 µM; in the test on MDA-MB-231 breast it was 5.4 µM; in the test on EKVX NSCLC, 4.83 µM; with SR leukemia it was 5.95 µM.

In the case of `Brc1ccc(N=NN2CCCCC2)cc1`, the TGI with UO-31 renal, in the test with OVCAR-8 ovarian, in the test with SNB-19 CNS, with MDA-MB-435, in the test with HOP-92 NSCLC and with K-562 leukemia was over 100 µM throughout. Besides, the values for the TGI in the test with MDA-MB-231 breast, with EKVX NSCLC and with SR leukemia were over 100 µM, over 100 µM and 41.7 µM, respectively.

For `OC(C1CCC=NN1C(O)(C(F)(F)F)C(F)(F)F)(C(F)(F)F)C(F)(F)F` (stereo not drawn), the TGI in the test on OVCAR-8 ovarian, in the test on SNB-19 CNS, in the test on MDA-MB-435, with HOP-92 NSCLC, with K-562 leukemia and in the test with HT29 colon was over 10 µM each time. For the same compound, the TGI in the test with MDA-MB-231 breast, in the test on EKVX NSCLC and in the test with SR leukemia was over 10 µM in each case.

Consider `CC(C)(CN)CN`, for which the TGI in the test with UO-31 renal, in the test on OVCAR-8 ovarian, in the test with SNB-19 CNS, in the test with MDA-MB-435, in the test on HOP-92 NSCLC and in the test on K-562 leukemia was over 100 µM throughout. Besides, the TGI in the test with HT29 colon, in the test with MDA-MB-231 breast, in the test with EKVX NSCLC and with SR leukemia was over 100 µM throughout.

Turning to `Oc1ccc(/C=C\c2nnc(/C=C\c3ccc(O)c(O)c3)s2)cc1O`, the TGI in the test on UO-31 renal is 7.78 µM; in the test on OVCAR-8 ovarian, over 48.4 µM; in the test on SNB-19 CNS, 23.2 µM; with MDA-MB-435, 15.1 µM; in the test on HOP-92 NSCLC it was 29.6 µM; in the test with K-562 leukemia it was over 27.9 µM. The TGI in the test on HT29 colon was over 75.8 µM; in the test on MDA-MB-231 breast it was 56.2 µM; with EKVX NSCLC, over 54.6 µM; in the test with SR leukemia, 5.22 µM.

Take `CCNC(=O)Nc1cccc(C)n1`: the TGI in the test with UO-31 renal, in the test on OVCAR-8 ovarian, in the test with SNB-19 CNS, in the test on MDA-MB-435, in the test with HOP-92 NSCLC and in the test on K-562 leukemia was over 100 µM throughout. Moreover, the TGI in the test with HT29 colon, in the test on MDA-MB-231 breast, in the test on EKVX NSCLC and in the test with SR leukemia was over 100 µM each time.

As to `Cn1ccnc1S/C(=C\C=C(C#N)C#N)c1ccc(Cl)cc1`, the TGI in the test with UO-31 renal was 9.34 µM; in the test on OVCAR-8 ovarian, 3.57 µM; with SNB-19 CNS it was 10.8 µM; in the test on MDA-MB-435, 2.45 µM; with HOP-92 NSCLC, 4.18 µM; in the test on K-562 leukemia, 3.41 µM. The TGI is 16.2 µM in the test on HT29 colon, 15 µM in the test on MDA-MB-231 breast, 13.1 µM with EKVX NSCLC and 0.367 µM with SR leukemia. Also, the GI50 in the test on MDA-MB-231 breast is 4.15 µM.

Consider `COc1ccc(N2C=Nn3c(nc4sc(C)c(C)c4c3=O)C2)cc1`, for which the TGI with UO-31 renal, with OVCAR-8 ovarian, in the test with SNB-19 CNS, in the test with MDA-MB-435, with HOP-92 NSCLC and in the test with K-562 leukemia was over 100 µM in each case. The TGI in the test with HT29 colon, in the test on MDA-MB-231 breast, with EKVX NSCLC and in the test with SR leukemia was over 100 µM each time.

Regarding `Cc1ccc([N+](=O)[O-])cc1S(=O)(=O)Nc1ccc(C2=NN(c3ccc([N+](=O)[O-])cc3[N+](=O)[O-])C(c3ccccc3)C2)cc1` (stereo not drawn), the TGI is 31.3 µM in the test with UO-31 renal; 40.2 µM with OVCAR-8 ovarian; 33 µM with SNB-19 CNS; 47.4 µM in the test on MDA-MB-435; 35.9 µM in the test with HOP-92 NSCLC; over 100 µM in the test on K-562 leukemia. Further, the TGI turned out to be 37.6 µM in the test with HT29 colon, 33.4 µM in the test on MDA-MB-231 breast, 34.6 µM with EKVX NSCLC and 90 µM in the test on SR leukemia.

In the case of `COC(=O)CCCc1ccc2c(c1)CC1(C2)Cc2cc3c(cc2C1)CCCC3`, the TGI in the test with UO-31 renal is over 100 µM; in the test with OVCAR-8 ovarian, over 100 µM; in the test with MDA-MB-435, 40.3 µM; in the test on HOP-92 NSCLC, 85.1 µM; in the test with K-562 leukemia, 52.5 µM; with HT29 colon it was over 100 µM. For the same compound, the TGI was over 100 µM with MDA-MB-231 breast, over 100 µM in the test with EKVX NSCLC and 0.713 µM in the test with SR leukemia.
